The values that follow come from US6495568B1, “Hydroxamic acid derivatives as matrix metalloprotease (MMP) inhibitors” (Warner-Lambert Company, priority 1997, dated 2002).

For orientation: IC50 means the concentration needed to halve the response being measured. Broadly, the melting point is the temperature of the solid-liquid transition.

In series [1] the target is T1, MMP-3 (Homo sapiens, UniProt P08254).
T1 construct: Catalytic domains MMP-2, MMP-3 and MMP-9 were prepared in Pfizer Central Research laboratories; made in house
T1 sequence (P08254 100-272 limits assumed): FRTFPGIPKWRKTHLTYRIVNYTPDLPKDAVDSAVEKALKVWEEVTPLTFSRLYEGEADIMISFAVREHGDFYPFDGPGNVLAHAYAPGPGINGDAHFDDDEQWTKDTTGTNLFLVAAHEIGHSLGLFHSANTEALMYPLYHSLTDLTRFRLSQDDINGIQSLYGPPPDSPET
Kind of series: Inhibition of MMP-3 (fluorogenic peptide cleavage). The series is classed as biochemical. As to conditions: in vitro, catalytic domain MMP-3. Here is the method:
(§1) The biological activities of the compounds of the present invention were determined by the following test methods, which are based on the ability of the compounds to inhibit the cleavage of various fluorogenic peptides by MMPs 1, 2, 3, 9, 13 and 14.
(§2) The assays for MMPs 2, 3, 9 and 14 are based upon the original protocol described in FEBS, 1992, 296, 263, with the minor modifications described below.
(§3) Inhibition of MMP-2, MMP-3 and MMP-9
(§4) Catalytic domains MMP-2, MMP-3 and MMP-9 were prepared in Pfizer Central Research laboratories. A stock solution of MMP-2, MMP-3 or MMP-9 (1 μM) was activated by the addition of APMA. For MMP-2 and MMP-9, a final concentration of 1 mM APMA was added, followed by incubation for 1 hour at 37° C. MMP-3 was activated by the addition of 2 mM APMA, followed by incubation for 3 hours at 37° C. The enzymes were then diluted in Tris-HCl assay buffer (100 mM Tris, 100 mM NaCl, 10 mM CaCl2 and 0.16% Brij 35, pH 7.5) to a concentration of 10 nM. The final concentration of enzyme used in the assays was 1 nM.
(§5) The fluorogenic substrate used in this screen was Mca-Arg-Pro-Lys-Pro-Tyr-Ala-Nva-Trp-Met-Lys(Dnp)-NH2 (Bachem Ltd., Essex, UK) as originally described in J.Biol.Chem., 1994, 269, 20952. This substrate was selected because it has a balanced hydrolysis rate against MMPs 2, 3 and 9 (kcat/km of 54,000, 59,400 and 55,300 s^−1 M^−1 respectively). The final substrate concentration used in the assay was 5 μM.
(§6) Determination of Enzyme Inhibition
(§7) The test compound was dissolved in dimethyl sulphoxide and diluted with assay buffer so that no more than 1% dimethyl sulphoxide was present. Test compound and enzyme were added to each well of a 96 well plate and allowed to equilibrate for 15 minutes at 37° C. in an orbital shaker prior to the addition of substrate. Plates were then incubated for 1 hour at 37° C., prior to determination of fluorescence using a fluorimeter (Fluostar; BMG Lab Technologies, Aylesbury, UK) at an excitation wavelength of 328 nm and emission wavelength of 393 nm. The potency of inhibition was measured from the amount of substrate cleavage obtained using a range of test compound concentrations and, from the resulting dose-response curve, an IC50 value (the concentration of inhibitor required to inhibit 50% of the enzyme activity) was calculated.

Series [2] deals with T2, MMP-2 (Homo sapiens, UniProt P08253).
T2 construct: Catalytic domains MMP-2, MMP-3 and MMP-9 were prepared in Pfizer Central Research laboratories
T2 sequence (P08253 with tags, fused parts or gaps DEL222-396 limits assumed): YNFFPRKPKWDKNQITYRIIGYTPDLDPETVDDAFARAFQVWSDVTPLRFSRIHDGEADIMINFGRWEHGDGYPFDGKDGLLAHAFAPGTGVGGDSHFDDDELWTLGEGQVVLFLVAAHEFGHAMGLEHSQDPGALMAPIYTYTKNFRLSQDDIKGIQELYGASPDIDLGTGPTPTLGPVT
Kind of series: Inhibition of MMP-2 (fluorogenic peptide cleavage). It is filed as biochemical. As to conditions: in vitro, catalytic domain MMP-2. The method, then:
as §1, §2, §3, §4, §5, §6, §7

Series [3] has as its system human ovarian carcinoma xenografts. As to conditions: mice carrying human ovarian carcinoma xenografts; Cancer Res., 1993, 53, 2087; cited from earlier work. Background: In xenograft studies the graft and the host belong to different species.
For series [4], the target named is T3, Human recombinant MMP-13 (Homo sapiens, UniProt P45452).
T3 construct: purchased PanVera Corporation (Madison, Wis.)
The experiment in a line: Inhibition of MMP-13 (fluorogenic peptide cleavage). The series is classed as biochemical. The note with it: in vitro. The method, then: as §1
Human recombinant MMP-13 was prepared by PanVera Corporation (Madison, Wis.) and characterised at Pfizer Central Research laboratories. A 1.9 mg/ml stock solution was activated with 2 mM APMA for 2 hours at 37° C. MMP-13 was then diluted in assay buffer (50 mM Tris, 200 mM NaCl, 5 mM CaCl2, 20 μM ZnCl2 and 0.02% Brij 35, pH 7.5) to a concentration of 5.3 nM. The final concentration of enzyme used in the assay was 1.3 nM.
The fluorogenic substrate used in this screen was Dnp-Pro-Cha-Gly-Cys(Me)-His-Ala-Lys(NMA)-NH2. The final substrate concentration used in the assay was10 μM.
as §6
The test compound was dissolved in dimethyl sulphoxide and diluted with assay buffer so that no more than 1% dimethyl sulphoxide was present. Test compound and enzyme were added to each well of a 96 well plate. The addition of substrate to each well initiated the reaction. Fluorescence intensity was determined using a 96 well plate fluorimeter (Cytofluor II; PerSeptive Biosystems, Inc., Framingham, Mass.) at an excitation wavelength of 360 nm and emission wavelength of 460 nm. […]

Structures are written as SMILES.

For `C=CCC(C)(C(=O)NO)S(=O)(=O)N1CC=C(c2ccc(-c3ccccc3)c(C)c2)CC1` (racemic) [Example 15, N-Hydroxy-2(R,S)-methyl-2-[4-(3-methyl-4-phenylphenyl)-1,2,3,6-tetrahydropyridin-1-ylsulphonyl]pent-4-enamide], the IC50 was found to be 20 nM in series [1] and 173 nM in series [2].
In the case of `CNC(=O)[C@H](Cc1ccccc1)NC(=O)[C@H](CC(C)C)[C@H](CSc1cccs1)C(=O)NO` [BB-94], in series [3], the survival entry is given as “prolong the survival” and the tumour burden result is “decrease the tumour burden”.
As to `Cc1cc(C2=CCN(S(=O)(=O)CC(=O)NO)CC2)ccc1-c1ccccc1` [Example 2, N-Hydroxy-2-[4-(3-methyl-4-phenylphenyl)-1,2,3,6-tetrahydropyridin-1-ylsulphonyl]acetamide], the melting point lay within 190 to 191 °C. In addition, the half-inhibitory concentration (IC50) in series [1] turned out to be 16 nM. Moreover, in series [4], the 50% inhibitory concentration (IC50) came out at 28 nM. It took 315 nM to reach half-maximal inhibition in series [2] (IC50).
In turn, `O=C(CS(=O)(=O)N1CCC(c2ccc(-c3ccccc3)cc2)CC1)NO` [Example 3, N-Hydroxy-2-[4-(4-phenylphenyl)piperidin-1-ylsulphonyl]acetamide] returned a melting point of 200 to 201 °C. For the same compound, 26 nM corresponded to half-maximal inhibition in series [1] (IC50). Moreover, the concentration for half-maximal inhibition (IC50) in series [4] was 25 nM. The compound also returned a half-inhibitory concentration (IC50) in series [2] of 38 nM.
`CCOc1cccc(-c2ccc(C3=CCN(S(=O)(=O)C4(C(=O)NO)CCOCC4)CC3)cc2C)c1` [Example 28, N-Hydroxy-4-{4-[4-(3-ethoxyphenyl)-3-methylphenyl]-1,2,3,6-tetrahydropyridin-1-ylsulphonyl}tetrahydropyran-4-carboxymide] gave a melting point of 152 to 154 °C. This compound had an IC50 in series [1] of 24 nM. The compound also displayed a half-maximal inhibitory concentration (IC50) in series [2] of 432 nM.
Taken in the same sequence, the figures for `Cc1cc(C2=CCN(S(=O)(=O)C(C)(C)C(=O)NO)CC2)ccc1-c1cnc2ccccc2c1` [Example 40, N-Hydroxy-2-methyl-2-{4-[3-methyl-4-(quinolin-3-yl)phenyl]-1,2,3,6-tetrahydropyridin-1-ylsulphonyl}propanamide] were 158 to 160 °C, 18 nM and 525 nM.
Taken in the same sequence, the figures for `COc1cccc(-c2ccc(C3CCN(S(=O)(=O)C4(C(=O)NO)Cc5ccccc5C4)CC3)cc2C)c1` [Example 50, N-Hydroxy-2-{4-[4-(3-methoxyphenyl)-3-methylphenyl]piperidin-1-ylsulphonyl}indane-2-carboxymide] were 199 to 202 °C, 23 nM and 1910 nM.
`Cc1cc(C2=CCN(S(=O)(=O)CC(=O)NO)CC2)ccc1-c1ccc2c(c1)OCO2` [Example 56, N-Hydroxy-2-{4-[4-(1,3-benzodioxol-5-yl)-3-methylphenyl]-1,2,3,6-tetrahydropyridin-1-ylsulphonyl}acetamide] registered a melting point of 165 to 167 °C. Besides, in series [1], the IC50 is 15 nM. This compound gave an IC50 in series [2] of 387 nM.
